Our source for the EC50 and Emax values is patent US6936585B2, “Corticotropin releasing factor 2 receptor agonists” (priority 2002, dated 2005).

As a reminder, the pEC50 is the negative decadic logarithm of the EC50, by convention in mol/L. What is called Emax is the size of the effect at its maximum, as opposed to the concentration needed.

pEC50: −log10 of the molar value. Peptide text beside a SMILES is read from it.

One experiment addresses T1, CRF2R (Homo sapiens, UniProt Q13324).
T1 sequence (Q13324 1-411): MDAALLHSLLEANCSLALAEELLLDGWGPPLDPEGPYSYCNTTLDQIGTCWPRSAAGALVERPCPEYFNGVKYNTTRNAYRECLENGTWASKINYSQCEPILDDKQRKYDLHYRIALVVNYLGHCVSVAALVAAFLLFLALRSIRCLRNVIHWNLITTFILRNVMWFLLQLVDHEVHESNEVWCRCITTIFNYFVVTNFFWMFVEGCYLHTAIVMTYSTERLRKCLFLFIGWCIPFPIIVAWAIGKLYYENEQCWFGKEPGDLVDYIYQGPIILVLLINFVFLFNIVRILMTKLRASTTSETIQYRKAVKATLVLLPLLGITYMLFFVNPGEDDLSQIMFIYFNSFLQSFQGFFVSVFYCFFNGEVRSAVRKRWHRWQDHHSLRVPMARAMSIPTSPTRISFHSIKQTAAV
Briefly: CRF2R agonist activation (EC50 / Emax), called comparative CRF binding. The format is cell-based. The note with it: for pEC50: read-out: CRF2R EC50; for Emax: read-out: CRF2R Emax. In outline:
(§1)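 Agonism at each human CRF receptor subtype is inferred from increased cAMP relative to vehicle, using cells expressing that subtype and either lysate cAMP measurement or a cAMP response element reporter.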

For the next experiment, the target named is T2, CRF1R (Homo sapiens, UniProt P34998).
T2 sequence (P34998 24-415): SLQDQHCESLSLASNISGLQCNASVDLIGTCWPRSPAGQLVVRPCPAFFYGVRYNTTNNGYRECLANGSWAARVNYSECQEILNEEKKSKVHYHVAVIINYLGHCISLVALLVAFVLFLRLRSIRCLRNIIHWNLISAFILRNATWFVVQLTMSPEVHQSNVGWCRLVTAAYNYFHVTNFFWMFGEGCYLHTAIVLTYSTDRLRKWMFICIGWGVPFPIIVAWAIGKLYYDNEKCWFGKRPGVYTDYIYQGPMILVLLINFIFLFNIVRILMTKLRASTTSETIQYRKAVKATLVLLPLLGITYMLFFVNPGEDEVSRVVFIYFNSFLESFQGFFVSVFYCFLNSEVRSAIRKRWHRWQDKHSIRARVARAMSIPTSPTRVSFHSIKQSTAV
The experiment is described as follows: CRF1R agonist activation (EC50 / Emax), called comparative CRF binding. The format is cell-based. The note with it: for pEC50: read-out: CRF1R EC50; for Emax: read-out: CRF1R Emax. In outline:
as §1

Take `CC[C@H](C)[C@H](NC(=O)[C@H](Cc1c[nH]cn1)NC(=O)[C@H](C)NC(=O)[C@H](CC(N)=O)NC(=O)[C@H](CCC(N)=O)NC(=O)[C@H](CCC(=O)O)NC(=O)[C@H](C)NC(=O)[C@H](CCCNC(=N)N)NC(=O)[C@H](CCC(=O)O)NC(=O)[C@H](CCCNC(=N)N)NC(=O)[C@H](CCC(N)=O)NC(=O)[C@H](CO)NC(=O)[C@H](CCC(N)=O)NC(=O)[C@@H](NC(=O)[C@H](CCCCN)NC(=O)[C@H](CCC(=O)O)NC(=O)[C@H](CC(C)C)NC(=O)[C@H](CCC(=O)O)NC(=O)[C@H](CC(C)C)NC(=O)[C@H](CC(C)C)NC(=O)[C@@H](NC(=O)[C@H](CCCNC(=N)N)NC(=O)[C@H](CC(C)C)NC(=O)[C@H](CC(C)C)NC(=O)[C@H](CC(C)C)NC(=O)[C@H](CC(C)C)NC(=O)[C@@H]1CCCN1C(=O)[C@H](CC(C)C)NC(=O)[C@H](CC(=O)O)NC(=O)[C@@H](NC(=O)[C@H](CO)NC(=O)[C@H](CC(C)C)NC(=O)[C@H](CO)NC(=O)[C@@H]1CCCN1C(=O)[C@H](CC(N)=O)NC(=O)[C@@H](N)CC(=O)O)[C@@H](C)CC)[C@@H](C)O)[C@@H](C)O)C(=O)N[C@@H](Cc1ccccc1)C(=O)N[C@@H](C)C(=O)N[C@@H](Cc1c[nH]cn1)C(=O)N[C@H](C(N)=O)C(C)C` [compound 328] (H-DNPSLSIDLPLLLLRTLLELEKTQSQRERAEQNAHIFAHV-NH2; N-terminus assumed): on CRF2R, the negative logarithm of the EC50 (pEC50) is 7.93 and the maximal response (Emax) came out at 95.7%. Moreover, on CRF1R, the pEC50 is not above 6.00 and the Emax was 30.7%.

In the case of `CC[C@H](C)[C@H](NC(=O)[C@H](CCCNC(=N)N)NC(=O)[C@H](C)NC(=O)[C@H](CC(N)=O)NC(=O)[C@H](CCC(N)=O)NC(=O)[C@H](CCC(=O)O)NC(=O)[C@H](C)NC(=O)[C@H](CCCNC(=N)N)NC(=O)[C@H](CCC(=O)O)NC(=O)[C@H](CCCNC(=N)N)NC(=O)[C@H](CCC(N)=O)NC(=O)[C@H](CO)NC(=O)[C@H](CCC(N)=O)NC(=O)[C@@H](NC(=O)[C@H](CCCNC(=N)N)NC(=O)[C@H](C)NC(=O)[C@H](CC(C)C)NC(=O)[C@H](CCC(=O)O)NC(=O)[C@H](CC(C)C)NC(=O)[C@H](CC(C)C)NC(=O)[C@@H](NC(=O)[C@H](CCCNC(=N)N)NC(=O)[C@H](CC(C)C)NC(=O)[C@H](CC(C)C)NC(=O)[C@H](Cc1ccccc1)NC(=O)[C@H](CC(C)C)NC(=O)[C@@H]1CCCN1C(=O)[C@H](CC(C)C)NC(=O)[C@H](CC(=O)O)NC(=O)[C@@H](NC(=O)[C@H](CO)NC(=O)[C@H](CC(C)C)NC(=O)[C@H](CO)NC(=O)[C@@H]1CCCN1C(=O)[C@H](CC(N)=O)NC(=O)[C@@H](N)CC(=O)O)[C@@H](C)CC)[C@@H](C)O)[C@@H](C)O)C(=O)N[C@@H](Cc1ccccc1)C(=O)N[C@@H](C)C(=O)N[C@@H](CCCNC(=N)N)C(=O)N[C@H](C(N)=O)C(C)C` [compound 329] (H-DNPSLSIDLPLFLLRTLLELARTQSQRERAEQNARIFARV-NH2; N-terminus assumed), the maximal response (Emax) was 98.3% on CRF2R and 98.4% on CRF1R.

With `CC[C@H](C)[C@H](NC(=O)[C@H](CCCNC(=N)N)NC(=O)[C@H](C)NC(=O)[C@H](CC(N)=O)NC(=O)[C@H](CCC(N)=O)NC(=O)[C@H](CCC(=O)O)NC(=O)[C@H](C)NC(=O)[C@H](CCCNC(=N)N)NC(=O)[C@H](CCC(=O)O)NC(=O)[C@H](CCCNC(=N)N)NC(=O)[C@H](CCC(N)=O)NC(=O)[C@H](CO)NC(=O)[C@H](CCC(N)=O)NC(=O)[C@@H](NC(=O)[C@H](CCCNC(=N)N)NC(=O)[C@H](C)NC(=O)[C@H](CC(C)C)NC(=O)[C@H](CCC(=O)O)NC(=O)[C@H](CC(C)C)NC(=O)[C@H](CC(C)C)NC(=O)[C@@H](NC(=O)[C@H](CCCNC(=N)N)NC(=O)[C@H](CC(C)C)NC(=O)[C@H](CC(C)C)NC(=O)[C@@H](NC(=O)[C@H](CC(C)C)NC(=O)[C@@H]1CCCN1C(=O)[C@H](CC(C)C)NC(=O)[C@H](CC(=O)O)NC(=O)[C@@H](NC(=O)[C@H](CO)NC(=O)[C@H](CC(C)C)NC(=O)[C@H](CO)NC(=O)[C@@H]1CCCN1C(=O)[C@H](CC(N)=O)NC(=O)[C@@H](N)CC(=O)O)[C@@H](C)CC)[C@@H](C)CC)[C@@H](C)O)[C@@H](C)O)C(=O)N[C@@H](Cc1ccccc1)C(=O)N[C@@H](C)C(=O)N[C@@H](CCCNC(=N)N)C(=O)N[C@H](C(N)=O)C(C)C` [compound 330] (H-DNPSLSIDLPLILLRTLLELARTQSQRERAEQNARIFARV-NH2; N-terminus assumed), on CRF2R, the pEC50 is 8.22 and the Emax is 93.7%. At CRF1R, the negative-log EC50 (pEC50) is not above 6.00 and the maximal effect (Emax) came to 86.8%.

Consider `CC[C@H](C)[C@H](NC(=O)[C@H](CCCNC(=N)N)NC(=O)[C@H](C)NC(=O)[C@H](CC(N)=O)NC(=O)[C@H](CCC(N)=O)NC(=O)[C@H](CCC(=O)O)NC(=O)[C@H](C)NC(=O)[C@H](CCCNC(=N)N)NC(=O)[C@H](CCC(=O)O)NC(=O)[C@H](CCCNC(=N)N)NC(=O)[C@H](CCC(N)=O)NC(=O)[C@H](CO)NC(=O)[C@H](CCC(N)=O)NC(=O)[C@@H](NC(=O)[C@H](CCCCN)NC(=O)[C@H](CCC(=O)O)NC(=O)[C@H](CC(C)C)NC(=O)[C@H](CCC(=O)O)NC(=O)[C@H](CC(C)C)NC(=O)[C@H](CC(C)C)NC(=O)[C@@H](NC(=O)[C@H](CCCNC(=N)N)NC(=O)[C@H](CC(C)C)NC(=O)[C@H](CC(C)C)NC(=O)[C@H](Cc1ccccc1)NC(=O)[C@H](CC(C)C)NC(=O)[C@@H]1CCCN1C(=O)[C@H](CC(C)C)NC(=O)[C@H](CC(=O)O)NC(=O)[C@@H](NC(=O)[C@H](CO)NC(=O)[C@H](CC(C)C)NC(=O)[C@H](CO)NC(=O)[C@@H]1CCCN1)[C@@H](C)CC)[C@@H](C)O)[C@@H](C)O)C(=O)N[C@@H](Cc1ccccc1)C(=O)N[C@@H](C)C(=O)N[C@@H](CCCNC(=N)N)C(=O)N[C@H](C(N)=O)C(C)C` [compound 331] (H-PSLSIDLPLFLLRTLLELEKTQSQRERAEQNARIFARV-NH2; N-terminus assumed), for which the figures for the Emax on CRF2R and at CRF1R were 100% and 78.7%, respectively.

On to `CC[C@H](C)[C@H](NC(=O)[C@H](CCCNC(=N)N)NC(=O)[C@H](C)NC(=O)[C@H](CC(N)=O)NC(=O)[C@H](CCC(N)=O)NC(=O)[C@H](CCC(=O)O)NC(=O)[C@H](C)NC(=O)[C@H](CCCNC(=N)N)NC(=O)[C@H](CCC(=O)O)NC(=O)[C@H](CCCNC(=N)N)NC(=O)[C@H](CCC(N)=O)NC(=O)[C@H](CO)NC(=O)[C@H](CCC(N)=O)NC(=O)[C@@H](NC(=O)[C@H](CCCCN)NC(=O)[C@H](CCC(=O)O)NC(=O)[C@H](CC(C)C)NC(=O)[C@H](CCC(=O)O)NC(=O)[C@H](CC(C)C)NC(=O)[C@H](CC(C)C)NC(=O)[C@@H](NC(=O)[C@H](CCCNC(=N)N)NC(=O)[C@H](CC(C)C)NC(=O)[C@H](CC(C)C)NC(=O)[C@@H](NC(=O)[C@H](CC(C)C)NC(=O)[C@@H]1CCCN1C(=O)[C@H](CC(C)C)NC(=O)[C@H](CC(=O)O)NC(=O)[C@@H](NC(=O)[C@H](CO)NC(=O)[C@H](CC(C)C)NC(=O)[C@H](CO)NC(=O)[C@@H]1CCCN1)[C@@H](C)CC)[C@@H](C)CC)[C@@H](C)O)[C@@H](C)O)C(=O)N[C@@H](Cc1ccccc1)C(=O)N[C@@H](C)C(=O)N[C@@H](CCCNC(=N)N)C(=O)N[C@H](C(N)=O)C(C)C` [compound 332] (H-PSLSIDLPLILLRTLLELEKTQSQRERAEQNARIFARV-NH2; N-terminus assumed), for which the Emax was found to be 100% at CRF2R and 61.3% on CRF1R.
